In patent US9694016B2 (Novartis AG, priority 2013, dated 2017):

Target: b-Raf (V600E) (Homo sapiens (Human), UniProt P15056, V600E)
Settings: read-out: b-Raf IC-50; AlphaScreen, 60 min pre-incubation, reaction 3 hours at room temperature

b-Raf (V600E), sequence (P15056 whole entry V600E): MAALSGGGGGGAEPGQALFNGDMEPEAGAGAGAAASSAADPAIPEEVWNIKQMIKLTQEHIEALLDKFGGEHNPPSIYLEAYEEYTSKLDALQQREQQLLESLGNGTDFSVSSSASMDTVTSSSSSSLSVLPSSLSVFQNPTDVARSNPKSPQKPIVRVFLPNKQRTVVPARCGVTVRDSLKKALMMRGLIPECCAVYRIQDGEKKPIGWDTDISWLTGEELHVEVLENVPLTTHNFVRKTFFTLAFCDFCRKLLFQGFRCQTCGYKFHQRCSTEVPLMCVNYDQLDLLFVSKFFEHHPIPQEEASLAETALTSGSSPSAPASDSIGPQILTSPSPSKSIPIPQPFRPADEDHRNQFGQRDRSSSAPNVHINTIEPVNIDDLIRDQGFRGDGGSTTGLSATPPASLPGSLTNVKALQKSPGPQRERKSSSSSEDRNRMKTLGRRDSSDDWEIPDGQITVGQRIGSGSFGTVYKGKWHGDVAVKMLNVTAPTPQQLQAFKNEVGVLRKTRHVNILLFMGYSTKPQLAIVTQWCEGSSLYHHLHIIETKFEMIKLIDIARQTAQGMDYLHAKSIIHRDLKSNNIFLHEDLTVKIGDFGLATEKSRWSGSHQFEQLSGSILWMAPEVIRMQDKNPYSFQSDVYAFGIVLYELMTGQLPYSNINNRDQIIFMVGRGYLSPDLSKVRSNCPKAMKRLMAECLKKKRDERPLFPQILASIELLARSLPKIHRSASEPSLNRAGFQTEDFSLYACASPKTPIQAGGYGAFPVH

With `CCn1cc(C(=O)Nc2ccc(C)c(-c3cc(N4CCOCC4)nc(N4CCOCC4)c3)c2)cc(C(F)(F)F)c1=O` [Example 1114, N-(3-(2,6-dimorpholinopyridin-4-yl)-4-methylphenyl)-1-ethyl-6-oxo-5-(trifluoromethyl)-1,6-dihydropyridine-3-carboxamide] as the compound, how does the IC50 read?
Its IC50 is 3.14 nM.

Which IC50 does the source give for `Cc1ccc(NC(=O)c2ccnc(C(F)F)c2)cc1-c1cc(N2CCOCC2)nc(N2CCOCC2)c1` [Example 1115, 2-(difluoromethyl)-N-(3-(2,6-dimorpholinopyridin-4-yl)-4-methylphenyl)isonicotinamide] here?
The IC50 was 0.65 nM.

Which IC50 does the source give for `Cc1ccc(NC(=O)c2cccc(C(F)F)c2)cc1-c1cc(N2CCOCC2)nc(N2CCOCC2)c1` [Example 1116, 3-(difluoromethyl)-N-(3-(2,6-dimorpholinopyridin-4-yl)-4-methylphenyl)benzamide] here?
Its IC50 is 0.82 nM.

`Cc1ccc(NC(=O)c2ccnc(C(C)C)c2)cc1-c1cc(N2CCOCC2)nc(N2CCOCC2)c1` [Example 1117, N-(3-(2,6-dimorpholinopyridin-4-yl)-4-methylphenyl)-2-isopropylisonicotinamide] was tested. Which IC50 did it give?
The IC50 was 1.31 nM.

Which IC50 does the source give for `Cc1ccc(NC(=O)c2ccnc(S(C)(=O)=O)c2)cc1-c1cc(N2CCOCC2)nc(N2CCOCC2)c1` [Example 1118, N-(3-(2,6-dimorpholinopyridin-4-yl)-4-methylphenyl)-2-(methylsulfonyl)isonicotinamide] here?
The IC50 was 1.02 nM.

Which IC50 does the source give for `Cc1ncc(NC(=O)c2ccnc(C(C)C)c2)cc1-c1cc(N2CCOCC2)nc(N2CCOCC2)c1` [Example 1119, 2-isopropyl-N-(2-methyl-2′,6′-dimorpholino-[3,4′-bipyridin]-5-yl)isonicotinamide] here?
The IC50 was 2 nM.

For `Cc1ncc(NC(=O)c2ccnc(C(F)(F)F)c2)cc1-c1cc(N2CCOCC2)nc(N2CCOCC2)c1` [Example 1120, N-(2-methyl-2′,6′-dimorpholino-[3,4′-bipyridin]-5-yl)-2-(trifluoromethyl)isonicotinamide], which IC50 is on record?
Its IC50 is 1.63 nM.

With `Cc1ncc(NC(=O)c2ccnc(C(F)F)c2)cc1-c1cc(N2CCOCC2)nc(N2CCOCC2)c1` [Example 1122, 2-(difluoromethyl)-N-(2-methyl-2′,6′-dimorpholino-[3,4′-bipyridin]-5-yl)isonicotinamide] as the compound, how does the IC50 read?
Its IC50 is 3.31 nM.

How did the IC50 turn out when `Cc1ncc(NC(=O)c2ccnc(C(C)(C)C#N)c2)cc1-c1cc(N2CCOCC2)nc(N2CCOCC2)c1` [Example 1123, 2-(2-cyanopropan-2-yl)-N-(2-methyl-2′,6′-dimorpholino-[3,4′-bipyridin]-5-yl)isonicotinamide] was run?
The IC50 was 10.8 nM.

Which IC50 does the source give for `Cc1ncc(NC(=O)c2ccnc(S(C)(=O)=O)c2)cc1-c1cc(N2CCOCC2)nc(N2CCOCC2)c1` [Example 1124, N-(2-methyl-2′,6′-dimorpholino-[3,4′-bipyridin]-5-yl)-2-(methylsulfonyl)isonicotinamide] here?
The IC50 was 12.1 nM.

For `CCn1cc(C(=O)Nc2cnc(C)c(-c3cc(N4CCOCC4)nc(N4CCOCC4)c3)c2)cc(C(F)(F)F)c1=O` [Example 1125, 1-ethyl-N-(2-methyl-2′,6′-dimorpholino-[3,4′-bipyridin]-5-yl)-6-oxo-5-(trifluoromethyl)-1,6-dihydropyridine-3-carboxamide], which IC50 is on record?
The IC50 was 10 nM.

For `Cc1ccc(NC(=O)c2ccnc(C(F)(F)F)c2)cc1-c1cc(-c2c(C)n[nH]c2C)nc(N2CCOCC2)c1` [Example 1127, N-(3-(2-(3,5-dimethyl-1H-pyrazol-4-yl)-6-morpholinopyridin-4-yl)-4-methylphenyl)-2-(trifluoromethyl)isonicotinamide], which IC50 is on record?
Its IC50 is 1.48 nM.

Which IC50 does the source give for `Cc1ccc(NC(=O)c2ccnc(C(F)(F)F)c2)cc1-c1cc(N2CCNCC2)nc(N2CCOCC2)c1` [Example 1128, N-(4-methyl-3-(2-morpholino-6-(piperazin-1-yl)pyridin-4-yl)phenyl)-2-(trifluoromethyl)isonicotinamide] here?
The IC50 was 2.16 nM.

`Cc1ncc(NC(=O)c2cccc(C(F)(F)F)c2)cc1-c1cc(N2CCNCC2)nc(N2CCOCC2)c1` [Example 1129, N-(2-methyl-2′-morpholino-6′-(piperazin-1-yl)-[3,4′-bipyridin]-5-yl)-3-(trifluoromethyl)benzamide] was tested. Which IC50 did it give?
The IC50 was 4.64 nM.

How did the IC50 turn out when `Cc1ccc(NC(=O)c2ccnc(C(F)(F)F)c2)cc1-c1cc(N2CCOCC2)nc(N2CCC(O)C2)c1` (centres unmarked) [Example 1130, N-(3-(2-(3-hydroxypyrrolidin-1-yl)-6-morpholinopyridin-4-yl)-4-methylphenyl)-2-(trifluoromethyl)isonicotinamide] was run?
Its IC50 is 2.24 nM.

How did the IC50 turn out when `Cc1ncc(NC(=O)c2cccc(C(F)(F)F)c2)cc1-c1cc(N2CCOCC2)nc(N2CCC(O)C2)c1` (centres unmarked) [Example 1131, N-(2′-(3-hydroxypyrrolidin-1-yl)-2-methyl-6′-morpholino-[3,4′-bipyridin]-5-yl)-3-(trifluoromethyl)benzamide] was run?
The IC50 was 2.34 nM.

With `CCOc1cc(-c2cc(NC(=O)c3ccnc(C(F)(F)F)c3)ccc2C)cc(N2CCOCC2)n1` [Example 1133, N-(3-(2-ethoxy-6-morpholinopyridin-4-yl)-4-methylphenyl)-2-(trifluoromethyl)isonicotinamide] as the compound, how does the IC50 read?
The IC50 was 1.29 nM.

How did the IC50 turn out when `Cc1ccc(NC(=O)c2cccc(C(F)(F)F)c2)cc1-c1ccnc(N2CCOCC2=O)c1` [Example 1134] was run?
Its IC50 is 4.99 nM.

How did the IC50 turn out when `Cc1ncc(NC(=O)c2cccc(C(F)(F)F)c2)cc1-c1ccnc(N2CCOCC2=O)c1` [Example 1135, N-(2-methyl-2′-(3-oxomorpholino)-[3,4′-bipyridin]-5-yl)-3-(trifluoromethyl)benzamide] was run?
The IC50 was 43 nM.

With `Cc1ncc(NC(=O)c2ccnc(C(C)C)c2)cc1-c1ccnc(N2CCOCC2)c1` [Example 1136, 2-isopropyl-N-(2-methyl-2′-morpholino-[3,4′-bipyridin]-5-yl)isonicotinamide] as the compound, how does the IC50 read?
Its IC50 is 5.03 nM.

Which IC50 does the source give for `Cc1ncc(NC(=O)c2ccnc(C(C)(C)F)c2)cc1-c1cc(NCCO)nc(N2CCOC[C@H]2C)c1` [Example 1138, (R)-2-(2-fluoropropan-2-yl)-N-(2′-((2-hydroxyethyl)amino)-2-methyl-6′-(3-methylmorpholino)-[3,4′-bipyridin]-5-yl)isonicotinamide] here?
Its IC50 is 27.8 nM.

`Cc1ncc(NC(=O)c2ccnc(C(C)(F)F)c2)cc1-c1cc(NCCO)nc(N2CCOC[C@H]2C)c1` [Example 1139, (R)-2-(1,1-difluoroethyl)-N-(2′-((2-hydroxyethyl)amino)-2-methyl-6′-(3-methylmorpholino)-[3,4′-bipyridin]-5-yl)isonicotinamide] was tested. Which IC50 did it give?
The IC50 was 14.3 nM.

How did the IC50 turn out when `Cc1ncc(NC(=O)c2ccnc(C(F)(F)F)c2)cc1-c1cc(NCCO)nc(N2CCOC[C@H]2C)c1` [Example 1140, (R)—N-(2′-((2-hydroxyethyl)amino)-2-methyl-6′-(3-methylmorpholino)-[3,4′-bipyridin]-5-yl)-2-(trifluoromethyl)isonicotinamide] was run?
Its IC50 is 13.4 nM.

`Cc1ncc(NC(=O)c2ccnc(C(F)F)c2)cc1-c1cc(NCCO)nc(N2CCOC[C@H]2C)c1` [Example 1141, (R)-2-(difluoromethyl)-N-(2′-((2-hydroxyethyl)amino)-2-methyl-6′-(3-methylmorpholino)-[3,4′-bipyridin]-5-yl)isonicotinamide] was tested. Which IC50 did it give?
The IC50 was 15.7 nM.

With `CCOc1cc(-c2cc(NC(=O)c3ccnc(C(C)(C)F)c3)cnc2C)cc(N2CCOCC2)n1` [Example 1142, N-(2′-ethoxy-2-methyl-6′-morpholino-[3,4′-bipyridin]-5-yl)-2-(2-fluoropropan-2-yl)isonicotinamide] as the compound, how does the IC50 read?
The IC50 was 3.18 nM.

`CCOc1cc(-c2cc(NC(=O)c3ccnc(C(C)(F)F)c3)cnc2C)cc(N2CCOCC2)n1` [Example 1143, 2-(1,1-difluoroethyl)-N-(2′-ethoxy-2-methyl-6′-morpholino-[3,4′-bipyridin]-5-yl)isonicotinamide] was tested. Which IC50 did it give?
The IC50 was 1.81 nM.

Which IC50 does the source give for `Cc1ccc(NC(=O)c2ccnc(C(C)(C)F)c2)cc1-c1cc(C2COCCO2)nc(N2CCOCC2)c1` (centres unmarked) [Example 1144, N-(3-(2-(1,4-dioxan-2-yl)-6-morpholinopyridin-4-yl)-4-methylphenyl)-2-(2-fluoropropan-2-yl)isonicotinamide] here?
Its IC50 is 1.56 nM.

How did the IC50 turn out when `Cc1ccc(NC(=O)c2ccnc(C(C)(F)F)c2)cc1-c1cc(C2COCCO2)nc(N2CCOCC2)c1` (centres unmarked) [Example 1145] was run?
The IC50 was 1.3 nM.

With `CCOc1cc(-c2cc(NC(=O)c3ccnc(C(F)F)c3)cnc2C)cc(N2CCOCC2)n1` [Example 1146, 2-(difluoromethyl)-N-(2′-ethoxy-2-methyl-6′-morpholino-[3,4′-bipyridin]-5-yl)isonicotinamide] as the compound, how does the IC50 read?
Its IC50 is 1.87 nM.

Which IC50 does the source give for `CCOc1cc(-c2cc(NC(=O)c3ccnc(C(C)(C)C#N)c3)cnc2C)cc(N2CCOCC2)n1` [Example 1147, 2-(2-cyanopropan-2-yl)-N-(2′-ethoxy-2-methyl-6′-morpholino-[3,4′-bipyridin]-5-yl)isonicotinamide] here?
Its IC50 is 8.31 nM.

Which IC50 does the source give for `CCOc1cc(-c2cc(NC(=O)c3ccnc(C(C)(C)O)c3)cnc2C)cc(N2CCOCC2)n1` [Example 1148, N-(2′-ethoxy-2-methyl-6′-morpholino-[3,4′-bipyridin]-5-yl)-2-(2-hydroxypropan-2-yl)isonicotinamide] here?
The IC50 was 11.9 nM.

With `CCOc1cc(-c2cc(NC(=O)c3ccnc(C4CC4)c3)cnc2C)cc(N2CCOCC2)n1` [Example 1149, 2-cyclopropyl-N-(2′-ethoxy-2-methyl-6′-morpholino-[3,4′-bipyridin]-5-yl)isonicotinamide] as the compound, how does the IC50 read?
The IC50 was 3.13 nM.

For `Cc1ccc(NC(=O)c2ccnc(C(C)(C)O)c2)cc1-c1cc(OC2CCOCC2)nc(N2CCOCC2)c1` [Example 1150, 2-(2-hydroxypropan-2-yl)-N-(4-methyl-3-(2-morpholino-6-((tetrahydro-2H-pyran-4-yl)oxy)pyridin-4-yl)phenyl)isonicotinamide], which IC50 is on record?
The IC50 was 1.6 nM.

`Cc1ccc(NC(=O)c2ccnc(C(F)F)c2)cc1-c1cc(OC2CCOCC2)nc(N2CCOCC2)c1` [Example 1151, 2-(difluoromethyl)-N-(4-methyl-3-(2-morpholino-6-((tetrahydro-2H-pyran-4-yl)oxy)pyridin-4-yl)phenyl)isonicotinamide] was tested. Which IC50 did it give?
Its IC50 is 0.6 nM.

With `Cc1ccc(NC(=O)c2ccnc(C(C)(C)C#N)c2)cc1-c1cc(OC2CCOCC2)nc(N2CCOCC2)c1` [Example 1152, 2-(2-cyanopropan-2-yl)-N-(4-methyl-3-(2-morpholino-6-((tetrahydro-2H-pyran-4-yl)oxy)pyridin-4-yl)phenyl)isonicotinamide] as the compound, how does the IC50 read?
Its IC50 is 1.25 nM.
